From patent US20240270762A1, “PENICILLIN-BINDING PROTEIN INHIBITORS” (priority 2021, published 2024)
Converted amounts (≈) assume the structure as drawn.

Experiments:
P. aeruginosa ATCC 35151 = test: microbe, parasite or virus in culture; type: cell-based; details: Pseudomonas aeruginosa, ATCC35151, read-out: Minimum inhibitory concentration, P. aeruginosa ATCC 35151
[1] = biological target: T1, PBP3 from Acinetobacter baumannii (ATCC 19606) (Acinetobacter baumannii, UniProt A0ABX6CK25); test: Bocillin-FL fluorescence polarization competition binding, A. baumannii PBP3; details: fluorescence polarization competition binding assay using Bocillin-FL; read-out: A. baumannii PBP3 Potency
T1 sequence (A0ABX6CK25 64-610): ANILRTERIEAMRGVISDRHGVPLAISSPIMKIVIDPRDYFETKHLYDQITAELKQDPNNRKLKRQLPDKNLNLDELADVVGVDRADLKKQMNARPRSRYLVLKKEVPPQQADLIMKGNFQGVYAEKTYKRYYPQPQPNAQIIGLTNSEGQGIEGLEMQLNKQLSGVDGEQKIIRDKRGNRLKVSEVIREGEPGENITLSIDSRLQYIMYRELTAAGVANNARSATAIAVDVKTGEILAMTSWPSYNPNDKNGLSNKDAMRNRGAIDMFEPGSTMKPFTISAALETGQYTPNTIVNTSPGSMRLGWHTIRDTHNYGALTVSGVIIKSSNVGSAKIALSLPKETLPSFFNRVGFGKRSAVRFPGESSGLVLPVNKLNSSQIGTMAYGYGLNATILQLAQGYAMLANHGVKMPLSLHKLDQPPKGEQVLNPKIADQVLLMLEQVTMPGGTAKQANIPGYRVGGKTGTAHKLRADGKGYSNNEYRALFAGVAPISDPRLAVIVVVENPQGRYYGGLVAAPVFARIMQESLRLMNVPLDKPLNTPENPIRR
How it was run: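 Purified PBPs pre-incubated with inhibitor (E. coli PBP3 1.5 μM, 30 min; P. aeruginosa PBP3 0.75 μM, A. baumannii PBP1a 1 μM and PBP3 0.2 μM, 15 min), then Bocillin-FL 0.1 μM (0.05 μM for PBP1a) added; FP read up to 60 min. EC50 = concentration halving bound Bocillin-FL.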

[2] = test system: B. humptydooensis ATCC BAA-2767; test: microbe, parasite or virus in culture; type: cell-based; details: Burkholderia humptydooensis, ATCCBAA2767, read-out: Minimum inhibitory concentration (MIC), B. humptydooensis ATCC BAA-2767
A. baumannii ATCC 19606 = test: microbe, parasite or virus in culture; type: cell-based; details: Acinetobacter baumannii, ATCC19606, read-out: MIC, A. baumannii ATCC 19606
A. baumannii ATCC 17978 = test: microbe, parasite or virus in culture; type: cell-based; details: Acinetobacter baumannii, ATCC17978, read-out: MIC, A. baumannii ATCC 17978

For `O=C(NCCCN1CCN(C(=O)NC(C(=O)N[C@H]2Cc3ccc(F)c(C(=O)O)c3OB2O)c2cc(F)c(O)c(O)c2Cl)C(=O)C1=O)c1c(F)ccc(O)c1F` (stereo partly drawn) [Example 413, (3R)-3-(2-(2-chloro-5-fluoro-3,4-dihydroxyphenyl)-2-(4-(3-(2,6-difluoro-3-hydroxybenzamido)propyl)-2,3-dioxopiperazine-1-carboxamido)acetamido)-7-fluoro-2-hydroxy-3,4-dihydro-2H-benzo[e][1,2]oxaborinine-8-carboxylic acid], the MIC (P. aeruginosa ATCC 35151) was < 1 µg/mL, the IC50 [1] was < 10 µM and the MIC [2] was 2 to 4 µg/mL (≈ 2.51 to 5.03 µM). For the same molecule, the MIC (A. baumannii ATCC 19606) was < 1 µg/mL and the MIC (A. baumannii ATCC 17978) was < 1 µg/mL.
In the case of `O=C(NCCCN1CCN(C(=O)NC(C(=O)N[C@H]2Cc3ccc(F)c(C(=O)O)c3OB2O)c2cc(F)c(O)c(O)c2Cl)C(=O)C1=O)c1c(F)ccc(O)c1Cl` (stereo partly drawn) [Example 414, (3R)-3-(2-(2-chloro-5-fluoro-3,4-dihydroxyphenyl)-2-(4-(3-(2-chloro-6-fluoro-3-hydroxybenzamido)propyl)-2,3-dioxopiperazine-1-carboxamido)acetamido)-7-fluoro-2-hydroxy-3,4-dihydro-2H-benzo[e][1,2]oxaborinine-8-carboxylic acid], the MIC (P. aeruginosa ATCC 35151) is reported as < 1 µg/mL, the IC50 [1] is reported as < 10 µM and the MIC [2] is reported as 2 to 4 µg/mL (≈ 2.46 to 4.92 µM). The MIC (A. baumannii ATCC 19606) was < 1 µg/mL and the MIC (A. baumannii ATCC 17978) was < 1 µg/mL.
For `O=C(NCCCN1CCN(C(=O)NC(C(=O)N[C@H]2Cc3ccc(F)c(C(=O)O)c3OB2O)c2cc(F)c(O)c(O)c2Cl)C(=O)C1=O)c1cc(O)c(F)c(O)c1F` (stereo partly drawn) [Example 415, (3R)-3-(2-(2-chloro-5-fluoro-3,4-dihydroxyphenyl)-2-(4-(3-(2,4-difluoro-3,5-dihydroxybenzamido)propyl)-2,3-dioxopiperazine-1-carboxamido)acetamido)-7-fluoro-2-hydroxy-3,4-dihydro-2H-benzo[e][1,2]oxaborinine-8-carboxylic acid], the MIC (P. aeruginosa ATCC 35151) was < 1 µg/mL, the IC50 [1] was < 10 µM and the MIC [2] was 8 to 16 µg/mL (≈ 9.85 to 19.7 µM). For the same molecule, the MIC (A. baumannii ATCC 19606) was < 1 µg/mL and the MIC (A. baumannii ATCC 17978) was < 1 µg/mL.
With `O=C(NCCCN1CCN(C(=O)NC(C(=O)N[C@H]2Cc3ccc(F)c(C(=O)O)c3OB2O)c2cc(F)c(O)c(O)c2Cl)C(=O)C1=O)c1cc(O)c(F)c(O)c1` (stereo partly drawn) [Example 416, (3R)-3-(2-(2-chloro-5-fluoro-3,4-dihydroxyphenyl)-2-(4-(3-(4-fluoro-3,5-dihydroxybenzamido)propyl)-2,3-dioxopiperazine-1-carboxamido)acetamido)-7-fluoro-2-hydroxy-3,4-dihydro-2H-benzo[e][1,2]oxaborinine-8-carboxylic acid] the MIC (P. aeruginosa ATCC 35151) was < 1 µg/mL, the IC50 [1] was < 10 µM and the MIC [2] was < 1 µg/mL. The MIC (A. baumannii ATCC 19606) was < 1 µg/mL and the MIC (A. baumannii ATCC 17978) was < 1 µg/mL.
In the case of `O=C(NCCCN1CCN(C(=O)NC(C(=O)N[C@H]2Cc3ccc(F)c(C(=O)O)c3OB2O)c2cc(F)c(O)c(O)c2Cl)C(=O)C1=O)c1ccc(O)c(F)c1Cl` (stereo partly drawn) [Example 418, (3R)-3-(2-(4-(3-(2-chloro-3-fluoro-4-hydroxybenzamido)propyl)-2,3-dioxopiperazine-1-carboxamido)-2-(2-chloro-5-fluoro-3,4-dihydroxyphenyl)acetamido)-7-fluoro-2-hydroxy-3,4-dihydro-2H-benzo[e][1,2]oxaborinine-8-carboxylic acid], the MIC (P. aeruginosa ATCC 35151) is reported as < 1 µg/mL, the IC50 [1] is reported as < 10 µM and the MIC [2] is reported as < 1 µg/mL. The MIC (A. baumannii ATCC 19606) was < 1 µg/mL and the MIC (A. baumannii ATCC 17978) was < 1 µg/mL.
For `O=C(NCCCN1CCN(C(=O)NC(C(=O)N[C@H]2Cc3ccc(F)c(C(=O)O)c3OB2O)c2cc(F)c(O)c(O)c2Cl)C(=O)C1=O)c1ccc(O)c(Cl)c1F` (stereo partly drawn) [Example 419, (3R)-3-(2-(4-(3-(3-chloro-2-fluoro-4-hydroxybenzamido)propyl)-2,3-dioxopiperazine-1-carboxamido)-2-(2-chloro-5-fluoro-3,4-dihydroxyphenyl)acetamido)-7-fluoro-2-hydroxy-3,4-dihydro-2H-benzo[e][1,2]oxaborinine-8-carboxylic acid], the MIC (P. aeruginosa ATCC 35151) was < 1 µg/mL, the IC50 [1] was < 10 µM and the MIC [2] was 2 to 4 µg/mL (≈ 2.46 to 4.92 µM). The MIC (A. baumannii ATCC 19606) was < 1 µg/mL and the MIC (A. baumannii ATCC 17978) was < 1 µg/mL.
`O=C(NCCCN1CCN(C(=O)NC(C(=O)N[C@H]2Cc3ccc(F)c(C(=O)O)c3OB2O)c2cc(F)c(O)c(O)c2Cl)C(=O)C1=O)c1c(F)cc(O)cc1Cl` (stereo partly drawn) [Example 421, (3R)-3-(2-(2-chloro-5-fluoro-3,4-dihydroxyphenyl)-2-(4-(3-(2-chloro-6-fluoro-4-hydroxybenzamido)propyl)-2,3-dioxopiperazine-1-carboxamido)acetamido)-7-fluoro-2-hydroxy-3,4-dihydro-2H-benzo[e][1,2]oxaborinine-8-carboxylic acid] was tested, and the MIC (P. aeruginosa ATCC 35151) was < 1 µg/mL, the IC50 [1] was < 10 µM and the MIC [2] was 2 to 4 µg/mL (≈ 2.46 to 4.92 µM). The MIC (A. baumannii ATCC 19606) was < 1 µg/mL and the MIC (A. baumannii ATCC 17978) was < 1 µg/mL.
`O=C(NCCCN1CCN(C(=O)N[C@@H](C(=O)N[C@H]2Cc3ccc(F)c(C(=O)O)c3OB2O)c2cc(F)c(O)c(O)c2Cl)C(=O)C1=O)c1cc(F)c(O)c(F)c1` [Example 422, (R)-3-((R)-2-(2-chloro-5-fluoro-3,4-dihydroxyphenyl)-2-(4-(3-(3,5-difluoro-4-hydroxybenzamido)propyl)-2,3-dioxopiperazine-1-carboxamido)acetamido)-7-fluoro-2-hydroxy-3,4-dihydro-2H-benzo[e][1,2]oxaborinine-8-carboxylic acid] was tested, and the MIC (P. aeruginosa ATCC 35151) was < 1 µg/mL, the IC50 [1] was < 10 µM and the MIC [2] was < 1 µg/mL. For the same molecule, the MIC (A. baumannii ATCC 19606) was < 1 µg/mL and the MIC (A. baumannii ATCC 17978) was < 1 µg/mL.
`O=C(NCCCN1CCN(C(=O)NC(C(=O)N[C@H]2Cc3ccc(F)c(C(=O)O)c3OB2O)c2cc(F)c(O)c(O)c2Cl)C(=O)C1=O)c1cc(O)cc(O)c1` (stereo partly drawn) [Example 423, (3R)-3-(2-(2-chloro-5-fluoro-3,4-dihydroxyphenyl)-2-(4-(3-(3,5-dihydroxybenzamido)propyl)-2,3-dioxopiperazine-1-carboxamido)acetamido)-7-fluoro-2-hydroxy-3,4-dihydro-2H-benzo[e][1,2]oxaborinine-8-carboxylic acid] was tested, and the MIC (P. aeruginosa ATCC 35151) was < 1 µg/mL, the IC50 [1] was < 10 µM and the MIC [2] was < 1 µg/mL. The MIC (A. baumannii ATCC 19606) was < 1 µg/mL and the MIC (A. baumannii ATCC 17978) was < 1 µg/mL.
`O=C(O)c1c(F)ccc2c1OB(O)[C@@H](NC(=O)C(NC(=O)N1CCN(C3CCN(C(=O)Nc4cccc(O)c4)CC3)C(=O)C1=O)c1cc(F)c(O)c(O)c1Cl)C2` (stereo partly drawn) [Example 424, (3R)-3-(2-(2-chloro-5-fluoro-3,4-dihydroxyphenyl)-2-(4-(1-((3-hydroxyphenyl)carbamoyl)piperidin-4-yl)-2,3-dioxopiperazine-1-carboxamido)acetamido)-7-fluoro-2-hydroxy-3,4-dihydro-2H-benzo[e][1,2]oxaborinine-8-carboxylic acid] was tested, and the MIC (P. aeruginosa ATCC 35151) was < 1 µg/mL, the IC50 [1] was < 10 µM and the MIC [2] was 2 to 4 µg/mL (≈ 2.5 to 4.99 µM). The MIC (A. baumannii ATCC 19606) was < 1 µg/mL and the MIC (A. baumannii ATCC 17978) was < 1 µg/mL.
For `O=C(O)c1c(F)ccc2c1OB(O)[C@@H](NC(=O)C(NC(=O)N1CCN(C3CCN(C(=O)c4cncc(O)c4)CC3)C(=O)C1=O)c1cc(F)c(O)c(O)c1Cl)C2` (stereo partly drawn) [Example 425, (3R)-3-(2-(2-chloro-5-fluoro-3,4-dihydroxyphenyl)-2-(4-(1-(5-hydroxynicotinoyl)piperidin-4-yl)-2,3-dioxopiperazine-1-carboxamido)acetamido)-7-fluoro-2-hydroxy-3,4-dihydro-2H-benzo[e][1,2]oxaborinine-8-carboxylic acid], the MIC (P. aeruginosa ATCC 35151) was < 1 µg/mL, the IC50 [1] was < 10 µM and the MIC [2] was < 1 µg/mL. The MIC (A. baumannii ATCC 19606) was < 1 µg/mL and the MIC (A. baumannii ATCC 17978) was < 1 µg/mL.
